Assay results: patent publication US20060189546A1, “Compounds for treating autoimmune and demyelinating diseases” (priority 2005, published 2006)

Columns and labels:
IL-4 = experiment: Mediator release, IL-4 (Con A-stimulated PBML, sandwich ELISA); type: cell-based; conditions: Homo sapiens
Experimental: (§1) In this experiment, test compound and/or vehicle were preincubated with human peripheral blood mononuclear leukocyte (PBML, 1×10^6/ml) in RPMI buffer pH 7.4 for 2 hours. Concanavalin A (Con A, 20 μg/ml) was then added to stimulate the cells overnight in 5% CO2 at 37° C. IL-4 and IL-10 cytokine levels in the conditioned medium were then quantified using a sandwich ELISA kit. Compounds were screened at 10, 1, 0.1, 0.01 and 0.001 μM.

[1] = test system: Collagen Antibody Induced Arthritis; experiment: Collagen monoclonal antibody (mABs) + LPS induced arthritis, hind paw volume; type: in vivo, BALB/c strain mice; conditions: for increase in hind paw volume: oral once daily for 3 days, 30 mg/kg
Experimental: Groups of 3 BALB/c strain mice, 6-7 weeks of age, were used for the induction of arthritis by monoclonal antibodies (mABs) raised against type II collagen, plus lipopolysaccharide (LPS). A combination of 4 different mABs (D8, F10, DI-2G and A2) totaling 4 mg/mouse was administered to the animal intravenously on day 0, followed by intravenous challenge with […] of LPS 72 hours later (day 3). From day 3, test substance and vehicle were each administered orally once daily for 3 consecutive days. For each animal, volumes of both hind paws were measured using a plethysmometer with water cell (12 mm diameter) on Days 0, 5, 7, 10, 14 and 17. Percent inhibition of increase in volume induced by mABs+LPS was calculated by the following formula: Inhibition (%): [1−(Tn−T0)/(Cn−C0)]×100% Where: […]
C0(Cn): volume of day 0 (day n) in vehicle control
T0(Tn): volume of day 0 (day n) in test compound-treated group
Reduction of edema in the hind paws by 30% or more is considered significant.

[2] = test system: Experimental Autoimmune Encephalomyelitis (EAE); experiment: Acute EAE, daily dosing for 15 days (Example 5); type: in vivo, guinea pigs
Experimental: Accordingly, three randomized cohorts of guinea pigs with EAE induced by the method of Example 2, were treated, respectively, with 6 mg/kg of Symadex™ (full salt hydrate) and 0.35 mg/kg of mitoxantrone. Animals were treated daily, by intraperitoneal injection, for 15 days, starting on day 7 post immunization. Controls were treated with vehicle. We reasoned that 15 consecutive, 6 mg/kg doses of Symadex™ would represent a level of drug exposure that would be commensurate with the “20 mg/kg every 72 hours” regimen in Example 4 and consistent with a mid level exposure between the 20 mg/kg and the 40 mg/kg schedule given weekly, in Example 2. The mitoxantrone dose was selected to reflect a typical high dose given to rats or mice by daily dosing in the prior art, but allometrically scaled to the guinea pig.

HT29 cell line = experiment: GI50 concentration in HT29 cells; type: cell-based; conditions: Homo sapiens, HT-29
[3] = test system: Experimental Autoimmune Encephalomyelitis (EAE); type: in vivo, guinea pig
Experimental: Following disease induction, as previously described, the animals were randomized into 5 five cohorts, one vehicle control and 4 treatment cohorts. Animals in the treatment cohorts were administered study drug intraperitoneally at 20 mg/kg (Symadex™dihydrochloride trihydrate) once a week for 4, 6 and 8 weeks, with an additional cohort treated once a week for 4 weeks and observed for an additional 4 weeks of treatment with vehicle solution (saline) rather than with drug.
The only significant protocol deviation from the method of Example 2 was that the pool of immunized animals was culled of animals presenting with a disease severity greater than 2 and randomized so that the mean disease severity of each cohort was matched in the severity score range of 1 to 1.5. This measure was invoked in order to avoid the chance circumstance, observed in Example 2, that animal selected for treatment should start treatment with a more severe presentation than the corresponding vehicle controls.

[4] = human, body surface area, as free base; cited from earlier work
IL-10 = experiment: Mediator release, IL-10 (Con A-stimulated PBML, sandwich ELISA); type: cell-based; conditions: Homo sapiens, IL-10 release
Experimental: as §1

HCT116 cell line = experiment: GI50 concentration in HCT116 cells; type: cell-based; conditions: Homo sapiens, HCT-116
[5] = 1 nM, read-out: % Growth Inhibition
[6] = 10 nM, read-out: % Growth Inhibition
[7] = 0.1 μM, read-out: % Growth Inhibition
[8] = 1 μM, read-out: % Growth Inhibition
[9] = 10 μM, read-out: % Growth Inhibition
[10] = necropsy after 15 daily doses, Symadex 6 mg/kg, mitoxantrone 0.35 mg/kg

Work on `CCN(CC)CCNc1ccc2ncn3c4ccc(O)cc4c(=O)c1c23` [Symadex™, 5-[[(diethylamino)ethyl]amino]-8-hydroxyimidazo[4,5,1-de]-acridine-6-one] yielded a % inhibition of IL-4 release at 0.001 µM (IL-4; [5]) of 8%, a % inhibition of IL-4 release at 0.01 µM (IL-4; [6]) of 7% and a % inhibition of IL-4 release at 0.1 µM (IL-4; [7]) of 2%. For the same molecule, the % inhibition of IL-4 release at 1 µM (IL-4; [8]) was -9%, the % inhibition of IL-4 release at 10 µM (IL-4; [9]) was 105% and the IC50 (IL-4; IL-4 release) was 3330 nM. The “increase in hind paw volume” value ([1]; day 5, vehicle 42%) was 32%, the “inhibition of increase in paw volume” value ([1]; day 10) was 61% and the “increase in hind paw volume” value ([1]; day 10, vehicle 75%) was 29%. For the same molecule, the “inhibition of increase in paw volume” value ([1]; day 14) was 74%, the “increase in hind paw volume” value ([1]; day 14, vehicle 70%) was 18% and the “inhibition of increase in paw volume” value ([1]; day 17) was 59%. For the same molecule, the “increase in hind paw volume” value ([1]; day 17, vehicle 47%) was 19%, the “clinical score (neurological impairment)” value ([2]; daily i.p. for 15 days from day 7, Symadex 6 mg/kg, mitoxantrone 0.35 mg/kg) was “the initial rise in neurological impairment is arrested” and the “weight gain profile vs vehicle controls, statistical significance” value ([2]; guinea pig, in vivo) was “did not show statistical significance”. For the same molecule, the “reduction of meningeal inflammation (M) pathology score” value [2, 10] was “does not”, the “reduction of perivascular cuffing (P), myelitis (E) and demyelination (D) pathology scores” value [2, 10] was “statistically significant differences (p value<0.05) from control” and the GI50 (HT29 cell line) was 680 nM. The “clinical scores after drug withdrawal” value ([3]; 20 mg/kg i.p. once a week for 4 weeks, then 4 weeks vehicle) was “remained in stable disease at the time of discontinuation”, the “mean clinical severity score” value ([3]; 20 mg/kg i.p. once a week, 4-week treatment cycle, starting mean 1.3) was 0.7 and the mean severity score ([3]; 20 mg/kg i.p. once a week, 6 week treatment course, control 1.3) was 0.3. The clinical scores ([3]; 20 mg/kg i.p., 8 consecutive weekly doses) was “converges on baseline at the end of the treatment course”, the “safe and well-tolerated single dose” value [4] was 540 mg/m^2 and the IC50 (IL-10) was 1200 nM. For the same molecule, the inhibition at 0.001 µM (IL-10; [5]) was 1%, the inhibition at 0.01 µM (IL-10; [6]) was 16% and the inhibition at 0.1 µM (IL-10; [7]) was 16%. It also gave an inhibition at 1 µM (IL-10; [8]) of 39%, an inhibition at 10 µM (IL-10; [9]) of 99% and a GI50 (HCT116 cell line) of 210 nM.
